# Test results as given in ChEMBL document CHEMBL4765250, “Discovery of hydrazone containing thiadiazoles as Mycobacterium tuberculosis growth and enoyl acyl carrier protein reductase (InhA) inhibitors” (Eur J Med Chem, 2020).
# Experiments:
# [1] = system: Mycobacterium tuberculosis; assay: Antitubercular activity against Mycobacterium tuberculosis H37Rv measured after 7 days by MABA method; type: functional; conditions: 168 h, time 7 day
# [2] = system: Mycobacterium tuberculosis; assay: Antitubercular activity at Mycobacterium tuberculosis H37Rv in nutrition starved condition medium assessed as log reduction of cell growth at 10 ug/ml measured after 7 days by MPN method; type: functional; conditions: dose 10 µg/ml; time 7 day
# [3] = target: T1, Enoyl-[acyl-carrier-protein] reductase [NADH] (Mycobacterium tuberculosis) (UniProt P9WGR1); assay: Inhibition of wild type InhA in Mycobacterium tuberculosis H37Rv using trans-2-dodecenoyl-coenzyme A as substrate at 5 uM
# T1 sequence (whole entry): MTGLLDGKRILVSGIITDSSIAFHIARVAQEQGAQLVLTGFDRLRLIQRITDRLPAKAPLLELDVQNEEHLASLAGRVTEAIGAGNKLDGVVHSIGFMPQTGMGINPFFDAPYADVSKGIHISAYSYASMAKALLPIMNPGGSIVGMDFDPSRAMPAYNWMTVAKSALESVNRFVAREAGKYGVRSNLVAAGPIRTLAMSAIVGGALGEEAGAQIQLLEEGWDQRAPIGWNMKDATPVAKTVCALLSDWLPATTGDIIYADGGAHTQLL
# [4] = Cytotoxicity against mouse RAW264.7 cells assessed as decrease cell viability at 50 ug/ml measured after 48 hrs by MTT assay; type: cell-based; conditions: at 50 µg/mL, read-out: INH
# [5] = Solubility of compound in aqueous buffer at pH 6.8; type: physicochemical
SMILES,MIC [1] [µM],FC [2],inhibition [3] [%],"cytotoxicity at 48 h, 50 ug/ml [4] [%]",solubility [5]
Fc1ccc(Nc2nc(N/N=C/c3ccccc3)ns2)cc1,> 79.9,–,–,–,–
CC[C@@H](CO)NCCN[C@@H](CC)CO [ETHAMBUTOL],7.6,–,–,–,–
O=[N+]([O-])c1ccc(Nc2nc(N/N=C/c3ccccc3)ns2)cc1,73.5,–,–,–,–
Cc1ccc(/C=N/Nc2nsc(Nc3ccc(C)cc3)n2)cc1,> 77.4,–,–,–,–
NNC(=O)c1ccncc1 [ISONIAZID],0.36,1.4,–,–,–
Cc1ccc(/C=N/Nc2nsc(Nc3ccccc3)n2)cc1,> 80.9,–,–,–,–
Clc1ccc(Nc2nc(N/N=C/c3ccccc3)ns2)c(Cl)c1,4.29,–,–,–,–
Cc1ccc(/C=N/Nc2nsc(Nc3ccc([N+](=O)[O-])cc3)n2)cc1,> 70.6,–,–,–,–
FC(F)(F)c1ccc(Nc2nc(N/N=C/c3ccccc3)ns2)cc1,34.4,–,–,–,–
Cc1ccc(/C=N/Nc2nsc(Nc3ccc(C(F)(F)F)cc3)n2)cc1,16.6,–,35,29.1,–
Cc1ccc(/C=N/Nc2nsc(Nc3ccc(I)cc3)n2)cc1,3.59,–,–,21.1,–
Cc1ccc(/C=N/Nc2nsc(Nc3ccc(F)cc3)n2)cc1,> 76.5,–,26,–,–
CO[C@H]1/C=C/O[C@@]2(C)Oc3c(C)c(O)c4c(O)c(c(/C=N/N5CCN(C)CC5)c(O)c4c3C2=O)NC(=O)/C(C)=C\C=C\[C@H](C)[C@H](O)[C@@H](C)[C@@H](O)[C@@H](C)[C@H](OC(C)=O)[C@@H]1C [RIFAMPIN],0.12,1.6,–,–,–
Brc1ccc(Nc2nc(N/N=C/c3ccccc3)ns2)cc1,4.17,–,39,25.8,–
COc1ccc(Nc2nc(N/N=C/c3ccccc3)ns2)cc1,2.4,2.2,–,24.6,–
Ic1ccc(Nc2nc(N/N=C/c3ccccc3)ns2)cc1,59.4,–,–,–,Insoluble
Cc1ccc(/C=N/Nc2nsc(Nc3ccc(Br)cc3)n2)cc1,> 64.4,–,–,–,–
C(=N\Nc1nsc(Nc2ccccc2)n1)/c1ccccc1,> 84.8,–,–,–,–
Cc1ccc(/C=N/Nc2nsc(Nc3ccc(Cl)cc3Cl)n2)cc1,8.27,–,48,33.1,–
COc1ccc(Nc2nc(N/N=C/c3ccc(C)cc3)ns2)cc1,> 73.8,–,–,–,–
Cc1ccc(Nc2nc(N/N=C/c3ccccc3)ns2)cc1,2.52,2.4,48,31.5,–
